Laboratory results: ChEMBL document CHEMBL2203036, “Discovery of 1-[2-(2,4-dimethylphenylsulfanyl)phenyl]piperazine (Lu AA21004): a novel multimodal compound for the treatment of major depressive disorder” (J Med Chem, 2011)

Experiments:
[1] = target: T1, 5-hydroxytryptamine receptor 1A (Homo sapiens, UniProt P08908); test: biochemical; type: cell-based, HEK293
T1 sequence (P08908 whole entry): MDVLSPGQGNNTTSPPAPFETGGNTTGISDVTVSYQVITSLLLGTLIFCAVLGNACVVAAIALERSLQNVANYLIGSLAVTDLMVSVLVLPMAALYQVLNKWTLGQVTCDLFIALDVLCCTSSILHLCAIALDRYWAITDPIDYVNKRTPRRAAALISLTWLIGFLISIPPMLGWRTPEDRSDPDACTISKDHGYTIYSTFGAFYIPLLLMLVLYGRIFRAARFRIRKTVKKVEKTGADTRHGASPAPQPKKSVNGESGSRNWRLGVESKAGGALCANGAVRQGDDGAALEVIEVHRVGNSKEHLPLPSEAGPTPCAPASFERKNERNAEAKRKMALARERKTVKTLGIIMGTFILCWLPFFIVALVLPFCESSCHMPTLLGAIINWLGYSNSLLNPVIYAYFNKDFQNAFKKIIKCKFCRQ
Description: Displacement of [3H]5-carboxamidotryptamine to human 5HT1A expressed in HEK293 cells by filter binding assay

[2] = target: T2, 5-hydroxytryptamine receptor 3A (Homo sapiens, UniProt P46098); test: Displacement of [3H]granisetron from human 5HT3A receptor expressed in HEK293 cells by filter binding assay; type: cell-based
T2 sequence (P46098 whole entry): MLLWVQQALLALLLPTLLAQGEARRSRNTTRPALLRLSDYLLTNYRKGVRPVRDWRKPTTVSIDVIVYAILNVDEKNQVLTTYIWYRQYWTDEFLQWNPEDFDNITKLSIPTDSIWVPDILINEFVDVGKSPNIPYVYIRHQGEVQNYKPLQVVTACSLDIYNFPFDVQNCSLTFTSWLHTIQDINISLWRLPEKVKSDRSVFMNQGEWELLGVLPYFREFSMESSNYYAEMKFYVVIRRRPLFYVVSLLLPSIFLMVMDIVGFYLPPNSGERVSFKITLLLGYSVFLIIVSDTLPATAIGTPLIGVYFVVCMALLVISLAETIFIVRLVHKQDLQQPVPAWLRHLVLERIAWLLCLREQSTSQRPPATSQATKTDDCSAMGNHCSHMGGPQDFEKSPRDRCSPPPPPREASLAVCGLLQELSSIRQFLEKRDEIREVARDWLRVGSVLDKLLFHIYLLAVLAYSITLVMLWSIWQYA

[3] = target: Sodium-dependent serotonin transporter (Rattus norvegicus, UniProt P31652); test: Inhibition of SERT-mediated [3H]5HT uptake in rat synaptosomes by scintillation counting; type: subcellular, Brain
Cytochrome P450 1A2 = target: T3, Cytochrome P450 1A2 (Homo sapiens, UniProt P05177); test: Inhibition of human recombinant CYP1A2 using 7-ethoxy-3-cyanocoumarin after 28 mins by fluorescence spectrophotometric analysis; type: ADME
T3 sequence (P05177 whole entry): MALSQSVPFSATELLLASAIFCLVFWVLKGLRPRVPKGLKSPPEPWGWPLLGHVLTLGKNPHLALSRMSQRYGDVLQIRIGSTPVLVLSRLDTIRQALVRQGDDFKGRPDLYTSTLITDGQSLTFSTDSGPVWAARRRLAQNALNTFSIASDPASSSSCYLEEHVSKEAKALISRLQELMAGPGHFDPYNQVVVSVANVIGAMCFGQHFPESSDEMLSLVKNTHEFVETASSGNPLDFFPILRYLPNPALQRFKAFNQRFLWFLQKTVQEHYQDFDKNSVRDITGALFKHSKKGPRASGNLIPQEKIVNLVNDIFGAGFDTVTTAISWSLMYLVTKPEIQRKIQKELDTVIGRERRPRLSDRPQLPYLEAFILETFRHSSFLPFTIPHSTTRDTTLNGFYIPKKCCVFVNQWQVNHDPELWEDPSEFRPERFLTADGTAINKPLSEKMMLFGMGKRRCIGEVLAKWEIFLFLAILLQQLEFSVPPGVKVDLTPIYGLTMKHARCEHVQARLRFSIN

Cytochrome P450 2C9 = Cytochrome P450 2C9 (Homo sapiens, UniProt P11712); test: Inhibition of human recombinant CYP2C9 using dibenzylfluorescein after 45 mins by fluorescence spectrophotometric analysis; type: ADME
Liver microsomes [4] = test: Intrinsic clearance in rat liver microsomes at 1 uM after 60 mins by LC-MS/MS analysis; type: ADME, Microsome; conditions: 1 h
Cytochrome P450 2D6 = Cytochrome P450 2D6 (Homo sapiens, UniProt P10635); test: Inhibition of human recombinant CYP2D6 using 3-[2-(N,N-diethyl-N-methylamino)ethyl]-7-methoxy- 4-methylcoumarin after 45 mins by fluorescence spectrophotometric analysis; type: ADME
Cytochrome P450 3A4 = Cytochrome P450 3A4 (Homo sapiens, UniProt P08684); test: Inhibition of human recombinant CYP3A4 using resorufin benzyl ether after 30 mins by fluorescence spectrophotometric analysis; type: ADME
[5] = Inhibition of NET-mediated [3H]NE in rat synaptosomes by scintillation counting; type: subcellular, Brain
Liver microsomes [6] = test: Intrinsic clearance in human liver microsomes at 1 uM after 60 mins by LC-MS/MS analysis; type: ADME, Microsome; conditions: 1 h
Rattus norvegicus [7] = species: Rattus norvegicus; test: Selectivity ratio of IC50 for NET to IC50 for SERT in rat synaptosomes; conditions: Brain
Rattus norvegicus [8] = species: Rattus norvegicus; test: Selectivity ratio of IC50 for DAT to IC50 for SERT in rat synaptosomes; conditions: Brain
[9] = target: T4, Sodium-dependent dopamine transporter (Rattus norvegicus, UniProt P23977); test: Inhibition of DAT-mediated [3H]DA in rat synaptosomes by scintillation counting; type: subcellular, Brain
[10] = target: 5-hydroxytryptamine receptor 2C (Homo sapiens, UniProt P28335); test: Binding affinity to human 5HT2C receptor
[11] = target: Alpha-1A adrenergic receptor (Rattus norvegicus, UniProt P43140); test: Binding affinity to rat alpha1 adrenergic receptor
Rattus norvegicus [12] = species: Rattus norvegicus; test: Selectivity ratio of IC50 for rat DAT to IC50 for SERT in rat synaptosomes; conditions: Brain
Rattus norvegicus [13] = test: Hepatic clearance in rat at 1 mg/kg, iv; type: ADME, organism-based, Liver; set-up: dose 1 mg/kg, route intravenous; conditions: in vivo
[14] = target: T4, Sodium-dependent dopamine transporter; test: Inhibition of rat DAT
[15] = Inhibition of rat NET
Rattus norvegicus [16] = species: Rattus norvegicus; test: Selectivity ratio of IC50 for rat NET to IC50 for SERT in rat synaptosomes; conditions: Brain
[17] = Oral bioavailability in rat at 2 mg/kg; type: ADME, organism-based; conditions: in vivo
Rattus norvegicus [18] = test: Antidepression activity in sc dosed Harlan rat assessed as increase in extracellular 5HT level in ventral hippocampus region measured up to 180 mins by microdialysis method relative to vehicle-treated control; type: functional

Sodium-dependent serotonin transporter, sequence (P31652 whole entry): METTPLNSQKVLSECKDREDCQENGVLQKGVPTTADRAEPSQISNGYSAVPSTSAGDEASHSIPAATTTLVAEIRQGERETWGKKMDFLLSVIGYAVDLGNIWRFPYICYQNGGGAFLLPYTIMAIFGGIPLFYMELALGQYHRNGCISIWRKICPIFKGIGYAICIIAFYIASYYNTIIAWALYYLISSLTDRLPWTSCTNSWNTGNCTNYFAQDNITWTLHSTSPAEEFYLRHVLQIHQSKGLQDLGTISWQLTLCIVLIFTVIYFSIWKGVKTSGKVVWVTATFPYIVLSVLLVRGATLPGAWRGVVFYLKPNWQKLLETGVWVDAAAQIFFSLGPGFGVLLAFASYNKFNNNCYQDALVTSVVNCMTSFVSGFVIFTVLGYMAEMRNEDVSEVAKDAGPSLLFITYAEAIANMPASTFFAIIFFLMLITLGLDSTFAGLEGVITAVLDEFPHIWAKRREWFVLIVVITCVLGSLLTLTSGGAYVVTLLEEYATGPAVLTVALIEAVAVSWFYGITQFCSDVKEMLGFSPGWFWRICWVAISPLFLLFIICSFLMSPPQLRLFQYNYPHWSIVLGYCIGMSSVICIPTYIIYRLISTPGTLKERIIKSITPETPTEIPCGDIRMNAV
T4 sequence (P23977 whole entry): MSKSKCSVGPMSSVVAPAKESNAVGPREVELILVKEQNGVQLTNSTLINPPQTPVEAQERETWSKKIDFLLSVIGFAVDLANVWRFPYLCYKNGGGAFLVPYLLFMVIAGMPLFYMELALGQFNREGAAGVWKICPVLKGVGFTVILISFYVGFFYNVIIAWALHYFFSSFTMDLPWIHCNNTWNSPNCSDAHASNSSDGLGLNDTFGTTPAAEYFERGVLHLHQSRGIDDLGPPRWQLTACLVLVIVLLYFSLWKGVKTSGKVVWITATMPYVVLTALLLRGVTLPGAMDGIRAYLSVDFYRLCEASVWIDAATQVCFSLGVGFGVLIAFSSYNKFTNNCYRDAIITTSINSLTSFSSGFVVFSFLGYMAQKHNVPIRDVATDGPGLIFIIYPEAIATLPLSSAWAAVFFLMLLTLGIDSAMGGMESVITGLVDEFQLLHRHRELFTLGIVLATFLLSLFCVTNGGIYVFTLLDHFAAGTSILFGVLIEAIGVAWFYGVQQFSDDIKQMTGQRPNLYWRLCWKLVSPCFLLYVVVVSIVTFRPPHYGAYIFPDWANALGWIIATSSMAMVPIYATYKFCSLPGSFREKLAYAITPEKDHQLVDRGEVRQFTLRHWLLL
Cytochrome P450 3A4, sequence (P08684 whole entry): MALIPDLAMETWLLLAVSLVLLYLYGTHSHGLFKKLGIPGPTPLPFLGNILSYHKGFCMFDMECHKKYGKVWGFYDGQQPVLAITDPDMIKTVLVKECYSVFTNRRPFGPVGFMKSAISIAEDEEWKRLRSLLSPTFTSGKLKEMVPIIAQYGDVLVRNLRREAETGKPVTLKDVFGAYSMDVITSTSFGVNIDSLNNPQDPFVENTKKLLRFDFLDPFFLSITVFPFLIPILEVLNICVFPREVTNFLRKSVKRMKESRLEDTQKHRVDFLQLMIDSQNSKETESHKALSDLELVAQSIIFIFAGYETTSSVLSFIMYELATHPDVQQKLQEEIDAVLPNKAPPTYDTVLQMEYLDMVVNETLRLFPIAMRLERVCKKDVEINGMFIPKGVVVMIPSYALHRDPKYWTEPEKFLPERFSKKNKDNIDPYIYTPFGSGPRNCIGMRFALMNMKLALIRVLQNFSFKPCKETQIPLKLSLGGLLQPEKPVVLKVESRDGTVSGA
Cytochrome P450 2C9, sequence (P11712 whole entry): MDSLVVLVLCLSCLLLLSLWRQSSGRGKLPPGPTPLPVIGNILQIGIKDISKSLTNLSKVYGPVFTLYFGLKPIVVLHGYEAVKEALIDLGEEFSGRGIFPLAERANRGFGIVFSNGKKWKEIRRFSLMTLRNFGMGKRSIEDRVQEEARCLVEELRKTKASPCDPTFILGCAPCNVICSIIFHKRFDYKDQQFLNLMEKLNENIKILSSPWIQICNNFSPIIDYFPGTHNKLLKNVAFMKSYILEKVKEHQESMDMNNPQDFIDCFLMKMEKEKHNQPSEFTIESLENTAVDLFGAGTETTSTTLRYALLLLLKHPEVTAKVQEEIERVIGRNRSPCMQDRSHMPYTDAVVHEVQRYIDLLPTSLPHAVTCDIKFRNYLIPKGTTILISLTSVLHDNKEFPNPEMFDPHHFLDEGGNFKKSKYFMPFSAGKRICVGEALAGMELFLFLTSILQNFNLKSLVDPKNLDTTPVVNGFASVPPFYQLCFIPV
Cytochrome P450 2D6, sequence (P10635 whole entry): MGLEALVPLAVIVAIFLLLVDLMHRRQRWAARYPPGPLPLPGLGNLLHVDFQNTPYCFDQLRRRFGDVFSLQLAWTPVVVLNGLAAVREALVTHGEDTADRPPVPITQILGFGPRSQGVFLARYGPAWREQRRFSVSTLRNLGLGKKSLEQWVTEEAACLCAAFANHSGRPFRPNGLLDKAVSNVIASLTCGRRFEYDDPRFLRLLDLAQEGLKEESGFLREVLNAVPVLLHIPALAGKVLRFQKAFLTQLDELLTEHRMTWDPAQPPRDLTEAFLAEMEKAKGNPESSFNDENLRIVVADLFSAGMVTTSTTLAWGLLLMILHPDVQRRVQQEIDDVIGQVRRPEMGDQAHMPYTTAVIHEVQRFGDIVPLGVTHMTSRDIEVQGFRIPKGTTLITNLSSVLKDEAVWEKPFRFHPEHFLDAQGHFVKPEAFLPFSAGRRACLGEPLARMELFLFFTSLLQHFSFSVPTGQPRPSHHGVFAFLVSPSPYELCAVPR
Alpha-1A adrenergic receptor, sequence (P43140 whole entry): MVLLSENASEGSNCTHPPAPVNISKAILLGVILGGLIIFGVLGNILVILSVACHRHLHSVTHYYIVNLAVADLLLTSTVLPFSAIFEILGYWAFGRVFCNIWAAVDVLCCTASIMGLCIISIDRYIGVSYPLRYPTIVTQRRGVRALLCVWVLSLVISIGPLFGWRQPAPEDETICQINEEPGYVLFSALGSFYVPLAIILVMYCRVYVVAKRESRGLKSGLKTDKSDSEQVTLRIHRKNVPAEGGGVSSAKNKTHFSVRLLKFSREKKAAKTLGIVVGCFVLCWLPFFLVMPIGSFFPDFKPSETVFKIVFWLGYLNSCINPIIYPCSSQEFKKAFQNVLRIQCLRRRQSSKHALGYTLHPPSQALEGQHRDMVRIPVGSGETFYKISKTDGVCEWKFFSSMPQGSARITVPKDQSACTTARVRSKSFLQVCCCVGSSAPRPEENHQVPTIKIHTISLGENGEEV
5-hydroxytryptamine receptor 2C, sequence (P28335 whole entry): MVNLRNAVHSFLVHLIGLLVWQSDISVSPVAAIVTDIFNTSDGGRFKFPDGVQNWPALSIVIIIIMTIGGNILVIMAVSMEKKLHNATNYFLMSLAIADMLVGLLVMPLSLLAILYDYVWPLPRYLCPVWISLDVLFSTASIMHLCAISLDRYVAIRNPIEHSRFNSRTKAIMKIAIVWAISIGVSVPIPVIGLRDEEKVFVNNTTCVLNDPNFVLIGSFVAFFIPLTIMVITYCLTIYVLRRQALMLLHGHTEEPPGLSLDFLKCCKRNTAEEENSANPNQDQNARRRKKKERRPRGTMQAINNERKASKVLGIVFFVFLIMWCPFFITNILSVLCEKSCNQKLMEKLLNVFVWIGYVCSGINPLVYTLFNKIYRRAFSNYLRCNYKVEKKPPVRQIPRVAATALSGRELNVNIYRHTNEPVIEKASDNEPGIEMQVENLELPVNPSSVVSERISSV

Row | Ki [1] [nM] | Ki [2] [nM] | IC50 [3] [nM] | SMILES | other results
1 | 120 | 130 | 680 | Cc1ccc(Sc2ccccc2N2CCN(C)CC2)c(C)c1 | –
2 | 94 | 12 | 4.3 | COc1ccc(Sc2ccccc2N2CCNCC2)c(Cl)c1 | –
3 | 210 | 17 | 11 | COc1cc(C)ccc1Sc1ccccc1N1CCNCC1 | –
4 | 1100 | 440 | 68 | Cc1ccc(Sc2ccc(F)cc2)c(N2CCNCC2)c1 | –
5 | – | 150 | 25 | Cc1ccc(Sc2ccc(C)cc2N2CCNCC2)c(C)c1 | –
6 | 78 | 7.3 | 9.7 | Cc1ccc(Sc2ccccc2N2CCNCC2)c(Cl)c1.Cl | IC50 (Cytochrome P450 1A2): 34000 nM; IC50 (Cytochrome P450 2C9): 40000 nM; CLH (Liver microsomes [4]): 120 mL/min; IC50 (Cytochrome P450 2D6): 1500 nM; IC50 (Cytochrome P450 3A4): 5500 nM; IC50 [5]: 340 nM; CLH (Liver microsomes [6]): 0.6 L/min; Ratio IC50 (Rattus norvegicus [7]): 35; Ratio IC50 (Rattus norvegicus [8]): 33; IC50 [9]: 320 nM
7 | 240 | 140 | 6.9 | FC(F)(F)c1ccc(Sc2ccccc2N2CCNCC2)cc1 | –
8 | – | 29 | 4.4 | Cc1cccc(Sc2ccccc2N2CCNCC2)c1C | IC50 (Cytochrome P450 1A2): 24000 nM; Ratio IC50 (Rattus norvegicus [7]): 20; Ratio IC50 (Rattus norvegicus [8]): 38; IC50 [9]: 170 nM
9 | 4000 | 190 | 7.9 | COc1ccc(Sc2ccc(C)cc2N2CCNCC2)cc1 | Ki [10]: < 100 nM; Ki [11]: < 100 nM
10 | 44 | 56 | 18 | Cc1ccc(Sc2ccccc2N2CCNCC2)cc1.Cl | IC50 (Cytochrome P450 1A2): 40000 nM; IC50 (Cytochrome P450 2C9): 40000 nM; CLH (Liver microsomes [4]): 260 mL/min; IC50 (Cytochrome P450 2D6): 2700 nM; IC50 (Cytochrome P450 3A4): 16000 nM; IC50 [5]: 460 nM; CLH (Liver microsomes [6]): 1.1 L/min; Ratio IC50 (Rattus norvegicus [7]): 25; Ratio IC50 (Rattus norvegicus [8]): 6.1; IC50 [9]: 110 nM
11 | 100 | 64 | 54 | Cc1cccc(Sc2ccccc2N2CCNCC2)c1 | –
12 | 78 | 26 | 5.2 | Cl.Clc1ccc(Sc2ccccc2N2CCNCC2)c(Cl)c1 | IC50 (Cytochrome P450 1A2): 27000 nM; IC50 (Cytochrome P450 2C9): 34000 nM; CLH (Liver microsomes [4]): 38 mL/min; IC50 (Cytochrome P450 2D6): 900 nM; IC50 (Cytochrome P450 3A4): 4400 nM; IC50 [5]: 120 nM; CLH (Liver microsomes [6]): 0.5 L/min; Ratio IC50 (Rattus norvegicus [7]): 23; Ratio IC50 (Rattus norvegicus [8]): 48; IC50 [9]: 250 nM
13 | 69 | 36 | 13 | Cl.Clc1ccc(Sc2ccccc2N2CCNCC2)cc1 | IC50 (Cytochrome P450 1A2): 53000 nM; IC50 (Cytochrome P450 2C9): 31000 nM; CLH (Liver microsomes [4]): 70 mL/min; Ratio IC50 (Rattus norvegicus [12]): 3.5; CLH (Rattus norvegicus [13]): 96.7 mL/min/kg; IC50 [14]: 45 nM; IC50 (Cytochrome P450 2D6): 400 nM; IC50 (Cytochrome P450 3A4): 6800 nM; IC50 [5]: 160 nM; IC50 [15]: 190 nM; CLH (Liver microsomes [6]): 0.6 L/min; Ratio IC50 (Rattus norvegicus [7]): 12; Ratio IC50 (Rattus norvegicus [8]): 2.8; IC50 [9]: 37 nM; Ratio IC50 (Rattus norvegicus [16]): 15; bioavailability [17]: 26%
14 | 160 | 86 | 15 | COc1ccc(Sc2ccccc2N2CCNCC2)cc1OC | –
15 | – | 27 | 130 | Cc1ccc(Sc2ccccc2N2CCCNCC2)c(C)c1 | –
16 | 540 | 670 | 540 | Cc1ccc(Sc2c(C)cccc2N2CCNCC2)c(C)c1 | –
17 | 140 | 62 | 53 | COc1cccc(Sc2ccccc2N2CCNCC2)c1 | –
18 | 53 | 33 | 5.8 | Cc1ccc(Sc2ccccc2N2CCNCC2)cc1C.Cl | IC50 (Cytochrome P450 1A2): 26000 nM; IC50 (Cytochrome P450 2C9): 34000 nM; CLH (Liver microsomes [4]): 290 mL/min; IC50 (Cytochrome P450 2D6): 2800 nM; IC50 (Cytochrome P450 3A4): 11000 nM; IC50 [5]: 880 nM; CLH (Liver microsomes [6]): 0.5 L/min; Ratio IC50 (Rattus norvegicus [7]): 150; Ratio IC50 (Rattus norvegicus [8]): 21; IC50 [9]: 120 nM
19 | 2500 | 450 | 2100 | CC(C)(C)c1ccc(Sc2ccccc2N2CCNCC2)cc1 | –
20 | 2800 | 260 | 20 | Cc1ccc(Sc2ccc(C)cc2N2CCNCC2)cc1 | –
21 | 330 | 32 | 7.6 | COc1ccc(Sc2ccccc2N2CCNCC2)c(OC)c1 | –
22 | – | – | – | CN(C)CCC[C@@]1(c2ccc(F)cc2)OCc2cc(C#N)ccc21 [ESCITALOPRAM] | Activity (Rattus norvegicus [18]): 700%
23 | – | – | 37 | COc1cccc(Sc2ccccc2N2CCNCC2)c1OC | –
24 | – | – | – | Clc1cccc(Sc2ccccc2N2CCNCC2)c1Cl | IC50 (Cytochrome P450 2C9): 40000 nM; Ratio IC50 (Rattus norvegicus [7]): 7; Ratio IC50 (Rattus norvegicus [8]): 1
25 | 130 | 36 | 8 | COc1ccc(Sc2ccccc2N2CCNCC2)cc1 | –
26 | 68 | 110 | 4.7 | Clc1ccc(Sc2ccccc2N2CCNCC2)cc1Cl | –
27 | 59 | 52 | 330 | COc1ccccc1Sc1ccccc1N1CCNCC1 | –
28 | 14 | 32 | 51 | Cc1ccccc1Sc1ccccc1N1CCNCC1 | –
29 | 2500 | 500 | 9.5 | Cc1ccc(Sc2ccc(Cl)cc2)c(N2CCNCC2)c1 | –
30 | 39 | 53 | 67 | Fc1ccc(Sc2ccccc2N2CCNCC2)cc1 | –

Row | SMILES | Ki [1] [nM] | Ki [2] [nM] | IC50 [3] [nM] | other results
31 | O=C1CC2(CCCC2)CC(=O)N1CCCCN1CCN(c2ncccn2)CC1 [BUSPIRONE] | – | > 10000 | – | –
32 | Cc1ccc(Sc2cccc(C)c2N2CCNCC2)c(C)c1 | 420 | 160 | 44 | –
33 | Cc1ccc(Oc2ccccc2N2CCNCC2)c(C)c1 | 65 | 270 | 250 | –
34 | c1ccc(Sc2ccccc2N2CCNCC2)cc1 | 30 | 64 | 390 | –
35 | Cc1ccc(Sc2cc(C)ccc2N2CCNCC2)c(C)c1 | – | 45 | 200 | –
36 | Cc1ccc(Sc2ccccc2)c(N2CCNCC2)c1 | 1100 | 310 | 150 | –
